In PubChem BioAssay AID330 (DTP/NCI, 2004):
Where “and” joins values, the source holds several entries; their conditions need not be identical. Identical values can stand only once. Inconclusive results and toxic doses are left out. Rule for the calls: active = survival T/C of 150% or more; inactive = T/C below 125% in these data.

Tested on: P388 leukemia ip, CD2F1 mice, survival T/C
Experiment: NCI In Vivo Anticancer Drug Screen. Data for tumor model P388 Leukemia (intraperitoneal) in CD2F1 (CDF1) mice
Conditions: endpoint: median survival time, higher = longer survival
Method in brief: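 Mice carrying the transplanted tumor received test compound or vehicle. Survival was recorded in each group, and the value is the treated-group measurement divided by that of the vehicle-treated control group.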

[1] = dose: 120.0 mg/kg/injection, schedule: Q01DX005 (ip), vehicle: saline with Tween-80
[2] = dose: 240.0 mg/kg/injection, schedule: Q01DX005 (ip), vehicle: saline with Tween-80
[3] = dose: 50.0 mg/kg/injection, schedule: Q01DX005 (ip), vehicle: saline with Tween-80
[4] = dose: 100.0 mg/kg/injection, schedule: Q01DX005 (ip), vehicle: saline with Tween-80
[5] = dose: 200.0 mg/kg/injection, schedule: Q01DX005 (ip), vehicle: saline with Tween-80
[6] = dose: 50.0 mg/kg/injection, schedule: Q01DX005 (ip), vehicle: Klucel (hydroxypropylcellulose) (HPC)
[7] = dose: 100.0 mg/kg/injection, schedule: Q01DX005 (ip), vehicle: Klucel (hydroxypropylcellulose) (HPC)
[8] = dose: 200.0 mg/kg/injection, schedule: Q01DX005 (ip), vehicle: Klucel (hydroxypropylcellulose) (HPC)
[9] = dose: 60.0 mg/kg/injection, schedule: Q01DX005 (ip), vehicle: saline with Tween-80
[10] = dose: 50.0 mg/kg/injection, schedule: Q01DX009 (ip), vehicle: saline with Tween-80
[11] = dose: 100.0 mg/kg/injection, schedule: Q01DX009 (ip), vehicle: saline with Tween-80
[12] = dose: 200.0 mg/kg/injection, schedule: Q01DX009 (ip), vehicle: saline with Tween-80

Measured: T/C

CCn1c(=S)[nH]c2sc3c(c2c1=O)CCCCC3
inactive: [1] 89 % of control | [2] 101 % of control

CC(C)NC(=O)N1C2C3CCC(C)(OC3(C)C)C21 (configuration not stated)
inactive: dose: 50.0 mg/kg/injection, schedule: Q01DX005 (ip), vehicle: saline 108 % of control | dose: 100.0 mg/kg/injection, schedule: Q01DX005 (ip), vehicle: saline 101 % of control | dose: 200.0 mg/kg/injection, schedule: Q01DX005 (ip), vehicle: saline 101 % of control

CSc1ccc(C)cc1C(C)=O
inactive: dose: 50.0 mg/kg/injection, schedule: Q01DX005 (ip), vehicle: acetone 93 % of control | dose: 100.0 mg/kg/injection, schedule: Q01DX005 (ip), vehicle: acetone 99 % of control | dose: 200.0 mg/kg/injection, schedule: Q01DX005 (ip), vehicle: acetone 100 % of control

CCCC(=O)O[C@H]1/C(=C/C(=O)OC)C[C@H]2C[C@H]([C@@H](C)O)OC(=O)C[C@H](O)C[C@@H]3C[C@H](OC(=O)CC(C)C)C(C)(C)[C@](O)(C[C@@H]4C/C(=C\C(=O)OC)C[C@H](/C=C/C(C)(C)[C@]1(O)O2)O4)O3
inactive: dose: 0.01 mg/kg/injection, schedule: Q01DX009 (ip), vehicle: saline + alcohol 111 % of control | dose: 0.05 mg/kg/injection, schedule: Q01DX009 (ip), vehicle: saline + alcohol 113 % of control

COC(=O)C1c2cc3c(c(O)c2CCC1(C)O)C(=O)c1c(O)cc2c(c1C3=O)OC1OC2(C)C(O)C(N(C)C)C1O (configuration not stated)
inactive: dose: 6.25 mg/kg/injection, schedule: Q01DX009 (ip), vehicle: saline 117 % of control | dose: 12.5 mg/kg/injection, schedule: Q01DX009 (ip), vehicle: saline 120 % of control | dose: 25.0 mg/kg/injection, schedule: Q04DX003 (ip), vehicle: saline 115 % of control | dose: 50.0 mg/kg/injection, schedule: Q04DX003 (ip), vehicle: saline 114 % of control | dose: 100.0 mg/kg/injection, schedule: Q04DX003 (ip), vehicle: saline 115 % of control

Cc1ccc(-c2nc3c(C)nc(-c4ccccc4)nc3n2Nc2ccccc2)cc1
inactive: [3] 94 % of control | [4] 90 % of control | [5] 91 % of control

CCCCCCCCCCCCCCCC(=O)N(CCCN(C)C)C(C)(C)CCC(C)(C)N(CCCN(C)C)C(=O)CCCCCCCCCCCCCCC
inactive: dose: 25.0 mg/kg/injection, schedule: Q01DX009 (ip), vehicle: other 98 % of control | dose: 50.0 mg/kg/injection, schedule: Q01DX009 (ip), vehicle: other 96 % of control

O=C1Nc2ccccc2/C1=N/N1C(=O)c2ccccc2C1=O
inactive: [6] 91 % of control | [7] 92 % of control | [8] 97 % of control

O=[N+]([O-])c1ccc(/C=C/C=C/C=C/C=C/c2ccc(S(=O)(=O)F)cc2Cl)c(Cl)c1
inactive: dose: 15.0 mg/kg/injection, schedule: Q01DX005 (ip), vehicle: saline with Tween-80 99 % of control | dose: 30.0 mg/kg/injection, schedule: Q01DX005 (ip), vehicle: saline with Tween-80 104 % of control | [9] 92 % of control and 98 % of control

CC(Oc1cc(Cl)c(Cl)cc1Cl)C(=O)NC(C(=O)O)C(C)C (configuration not stated)
inactive: [3] 97 % of control and 100 % of control | [4] 91 % of control and 106 % of control | [5] 97 % of control and 111 % of control

CCOC(=O)c1cn(CC)c2cc(-n3cccc3)ccc2c1=O
inactive: [9] 93 % of control | [1] 98 % of control | [2] 92 % of control

O=C(CCN1CCC23c4c5ccc(O)c4OC2C(O)C=CC3C1C5)c1ccccc1 (configuration not stated)
inactive: [6] 88 % of control | [7] 99 % of control

COc1ccc2cc1Oc1ccc(cc1)CC1c3cc(c(OC)cc3CCN1C)Oc1c(O)c(OC)cc3c1C(C2)N(C)CC3 (configuration not stated)
inactive: dose: 15.0 mg/kg/injection, schedule: Q01DX009 (ip), vehicle: Klucel (hydroxypropylcellulose) (HPC) 95 % of control | dose: 30.0 mg/kg/injection, schedule: Q01DX009 (ip), vehicle: Klucel (hydroxypropylcellulose) (HPC) 93 % of control | dose: 60.0 mg/kg/injection, schedule: Q01DX009 (ip), vehicle: Klucel (hydroxypropylcellulose) (HPC) 97 % of control

CSc1cc(SC)c(SC)nn1
inactive: [10] 106 % of control | [11] 109 % of control | [12] 98 % of control

CN(C)c1ccc2c(c1)Cc1cc(N=C3C=CC(=O)O3)ccc1-2
inactive: [10] 100 % of control | [11] 100 % of control | dose: 100.0 mg/kg/injection, schedule: Q04DX003 (ip), vehicle: saline with Tween-80 109 % of control | [12] 100 % of control | dose: 200.0 mg/kg/injection, schedule: Q04DX003 (ip), vehicle: saline with Tween-80 95 % of control

CCC1(CC)c2c(ccc(OC)c2OC)C=C2c3cc4c(cc3CCN21)OCO4
inactive: dose: 0.63 mg/kg/injection, schedule: Q01DX009 (ip), vehicle: distilled water + Tween-80 108 % of control | dose: 0.63 mg/kg/injection, schedule: Q01DX009 (ip), vehicle: water 94 % of control | dose: 1.25 mg/kg/injection, schedule: Q01DX009 (ip), vehicle: distilled water + Tween-80 108 % of control | dose: 1.25 mg/kg/injection, schedule: Q01DX009 (ip), vehicle: water 103 % of control | dose: 2.5 mg/kg/injection, schedule: Q01DX009 (ip), vehicle: distilled water + Tween-80 123 % of control | dose: 2.5 mg/kg/injection, schedule: Q01DX009 (ip), vehicle: water 112 % of control

COc1ccccc1[B-]12OCC[N+]1(CNC(=O)c1ccccc1O)CCO2 (configuration not stated)
inactive: [6] 102 % of control | [7] 103 % of control | [8] 103 % of control

COC1=CC(=O)C(CCC(C)=O)=CC1=O
inactive: dose: 3.75 mg/kg/injection, schedule: Q01DX005 (ip), vehicle: Klucel (hydroxypropylcellulose) (HPC) 99 % of control | dose: 7.5 mg/kg/injection, schedule: Q01DX005 (ip), vehicle: Klucel (hydroxypropylcellulose) (HPC) 98 % of control | dose: 15.0 mg/kg/injection, schedule: Q01DX005 (ip), vehicle: Klucel (hydroxypropylcellulose) (HPC) 94 % of control

CC1C(c2ccccc2)OC(c2ccccc2)N1C (configuration not stated)
inactive: dose: 12.5 mg/kg/injection, schedule: Q01DX005 (ip), vehicle: water 93 % of control | dose: 25.0 mg/kg/injection, schedule: Q01DX005 (ip), vehicle: water 93 % of control | dose: 50.0 mg/kg/injection, schedule: Q01DX005 (ip), vehicle: water 98 % of control | dose: 100.0 mg/kg/injection, schedule: Q01DX005 (ip), vehicle: water 93 % of control | dose: 200.0 mg/kg/injection, schedule: Q01DX005 (ip), vehicle: water 98 % of control

CCCCCCCCCCCCCCCCCc1n[nH]c(=S)o1
inactive: [10] 99 % of control | [11] 99 % of control | [12] 98 % of control

C=C1C(C2=[N+]([O-])CCN2O)OC2OC(C)(C)OC12 (configuration not stated)
inactive: dose: 60.0 mg/kg/injection, schedule: Q01DX005 (ip), vehicle: Klucel (hydroxypropylcellulose) (HPC) 93 % of control | dose: 120.0 mg/kg/injection, schedule: Q01DX005 (ip), vehicle: Klucel (hydroxypropylcellulose) (HPC) 101 % of control | dose: 240.0 mg/kg/injection, schedule: Q01DX005 (ip), vehicle: Klucel (hydroxypropylcellulose) (HPC) 101 % of control

CCOC(=O)Nc1nccs1
inactive: dose: 25.0 mg/kg/injection, schedule: Q01DX009 (ip), vehicle: saline with Tween-80 108 % of control | [10] 103 % of control | [11] 102 % of control | [12] 108 % of control

COc1ccc(CCNC(=O)C(Sc2ccccn2)c2ccccc2)cc1OC (configuration not stated)
inactive: [6] 94 % of control | [7] 103 % of control | [8] 98 % of control

Cc1ccc(N2CCN(CC(O)COc3cc4ccccc4c4c3CCCC4)CC2)cc1C (configuration not stated)
inactive: dose: 100.0 mg/kg/injection, schedule: Q04DX003 (ip), vehicle: Klucel (hydroxypropylcellulose) (HPC) 95 % of control | dose: 200.0 mg/kg/injection, schedule: Q04DX003 (ip), vehicle: Klucel (hydroxypropylcellulose) (HPC) 104 % of control | dose: 400.0 mg/kg/injection, schedule: Q04DX003 (ip), vehicle: Klucel (hydroxypropylcellulose) (HPC) 108 % of control

CCn1c(=O)c2[nH]c(Cl)nc2n(CC(C)Cl)c1=O (configuration not stated)
inactive: dose: 12.5 mg/kg/injection, schedule: Q01DX009 (ip), vehicle: Klucel (hydroxypropylcellulose) (HPC) 94 % of control | dose: 25.0 mg/kg/injection, schedule: Q01DX009 (ip), vehicle: Klucel (hydroxypropylcellulose) (HPC) 101 % of control | dose: 50.0 mg/kg/injection, schedule: Q01DX009 (ip), vehicle: Klucel (hydroxypropylcellulose) (HPC) 100 % of control and 103 % of control | dose: 100.0 mg/kg/injection, schedule: Q01DX009 (ip), vehicle: Klucel (hydroxypropylcellulose) (HPC) 104 % of control
